These results are taken from patent publication US4906614A, “Method of treating posttraumatic nervous injuries with dipeptide derivatives” (Gruenenthal GmbH, priority 1985, dated 1990).

Experiment [1] relates to Cats After Traumatic Spinal Cord Injury. In words: Neurologic recovery in cats after traumatic spinal cord injury (C-7 weight-drop). It is filed as in vivo, cat. The arrangement: key to total functional score (forelimb + hindlimb scores): sum of forelimb + hindlimb scores, each 0 = no movement to 5 = normal. To be noted: for neurologic and motoric function compared with saline: after 6 weeks. The procedure:
Cats anesthetized with sodium pentobarbital were subjected under aseptic conditions to a laminectomy to expose the C-7 spinal segment. With the dura intact, the spinal cord was traumatized by dropping a 20 g weight a distance of 30 cm through a guide tube onto a 10 square-millimeter impact plate. Drugs were given intravenously as a bolus injection (0.5 ml) at 1 and 3 hours after injury. A group of 9 animals was treated with 0.2mg/kg of orotyl-L-histidyl-L-prolinamide dissolved in 0.5 ml of physiological saline. A second group of 7 animals was given 1 mg/kg L-pyro-2-aminoapidyl-L-nistidyl-thiazolidine-4-carboxamide (also dissolved in 0.5 ml of physiological saline), which compound is referred to hereinafter as "compound A" and which has been described in the literature as an active TRH-modification product and has also been compared with the aforementioned orotylL-histidyl-L-prolinamide (c.f. Metcalf in Thyrotropin Releasing Hormone, E. C. Griffiths et al., eds., Raven Press, New York, 1983, pp. 315-26). A control group of 11 animals was treated with 0.5 ml of physiological saline per animal.
Neurologic function was evaluated weekly for six weeks by a neurologist who was unaware of the treatment group and assessed according to a six-point ordinal scale as described by Faden et al. in Neurology, Vol. 33, pp. 673-678 (1983). Forelimb and hindlimb function were scored separately as follows: 0 =absence of voluntary movement; 1 =spontaneous movement but inability to support weight; 2=ability to support weight but unable to walk; 3=ability to walk but with marked spasticity and/or ataxia; 4=ability to run but with mild spasticity or ataxia; and 5=normal motor function. Forelimb and hindlimb scores were then added together to obtain a total functional score.

Experiment [2] has as its system experimental spinal cord injury. To be noted: animal experiments; treatment during the first 24 hours following the trauma; cited from earlier work.
In experiment [3] the test system is brain stem compression in cats. Conditions: cited from earlier work.

On to `NC(=O)[C@@H]1CCCN1C(=O)[C@H](Cc1c[nH]cn1)NC(=O)c1cc(=O)[nH]c(=O)[nH]1` [Compound of Invention, orotyl-L-histidyl-L-prolinamide], for which the “neurologic and motoric function compared with saline” value in experiment [1] (0.2 mg/kg i.v. at 1 and 3 hours after injury) is reported as “significantly improved”. Also, the “total functional score (forelimb + hindlimb scores)” value in experiment [1] (week 1 after injury, 0.2 mg/kg i.v. bolus at 1 and 3 hours after injury, n = 9) was 6; in experiment [1] (week 2 after injury, 0.2 mg/kg i.v. bolus at 1 and 3 hours after injury, n = 9) it was 6; in experiment [1] (week 3 after injury, 0.2 mg/kg i.v. bolus at 1 and 3 hours after injury, n = 9) it was 6; in experiment [1] (week 4 after injury, 0.2 mg/kg i.v. bolus at 1 and 3 hours after injury, n = 9), 7; in experiment [1] (week 5 after injury, 0.2 mg/kg i.v. bolus at 1 and 3 hours after injury, n = 9), 8; in experiment [1] (week 6 after injury, 0.2 mg/kg i.v. bolus at 1 and 3 hours after injury, n = 9), 8.

`NC(=O)C1CSCN1C(=O)[C@H](Cc1c[nH]cn1)NC(=O)[C@@H]1CCCC(=O)N1` (stereo partly drawn) [A, L-pyro-2-aminoapidyl-L-nistidyl-thiazolidine-4-carboxamide]: the “neurologic and motoric function compared with saline” value in experiment [1] (1 mg/kg i.v. at 1 and 3 hours after injury) is “did not differ significantly from those of saline”. In addition, the “total functional score (forelimb + hindlimb scores)” value in experiment [1] (week 1 after injury, 1 mg/kg i.v. bolus at 1 and 3 hours after injury, n = 7) stood at 4; in experiment [1] (week 2 after injury, 1 mg/kg i.v. bolus at 1 and 3 hours after injury, n = 7), 5; in experiment [1] (week 3 after injury, 1 mg/kg i.v. bolus at 1 and 3 hours after injury, n = 7) it was 5; in experiment [1] (week 4 after injury, 1 mg/kg i.v. bolus at 1 and 3 hours after injury, n = 7), 5; in experiment [1] (week 5 after injury, 1 mg/kg i.v. bolus at 1 and 3 hours after injury, n = 7), 6; in experiment [1] (week 6 after injury, 1 mg/kg i.v. bolus at 1 and 3 hours after injury, n = 7), 6.

Consider `NC(=O)[C@@H]1CCCN1C(=O)[C@H](Cc1c[nH]cn1)NC(=O)[C@@H]1CCC(=O)N1` [TRH, L-pyroglutamyl-L-histidyl-L-prolinamide], for which, in experiment [2], the “recovery of the motoric function after experimental spinal cord injury” value was “significantly improves recovery of the motoric function”. For the same molecule, the “effect on EEG alterations resulting from traumata of the brain” value in experiment [3] is “dose-dependent positive effect”.
